# Key:
# Format in all cases: cell-based
# ETV6-TRKC-G623R = target: T1, ETV6-TRKC-G623R (Homo sapiens, UniProt Q16288, G623R); test: Engineered Ba/F3 cell proliferation inhibition (MTS), ETV6-TRKC-G623R; conditions: 72 h
# T1 construct: fused on or other part: P41212 (Transcription factor ETV6)
# Procedure, shortened: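 Ba/F3 cells stably expressing the TRK fusion, grown with puromycin, were plated 4 h then treated 72 h at 37 °C with compound 1.5–10000 nM final. Proliferation measured by MTS (2 h), absorbance at 490 nm with 650 nm reference; IC50 derived by curve fit.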
# TPM3-TRKA-G595R = target: T2, TPM3-TRKA-G595R (Homo sapiens, UniProt P04629, G595R); test: Engineered Ba/F3 cell proliferation inhibition (MTS), TPM3-TRKA-G595R; conditions: 72 h
# T2 construct: TPM3 (tropomyosin alpha-3, P06753) fusion partner; expressed in transfected cells; host or cells: Ba/F3; the other entry of the earlier key: TPM3 (P06753, Tropomyosin alpha-3 chain)
# Excerpt: (§1) MTS testing kit was purchased from Promega (Madison, Wis., USA). The RPMI-1640, Fetal bovine serum and Penicillin-Streptomycin were purchased from Gibco (San Francisco, Calif., USA). Dimethyl sulfoxide (DMSO) and Puromycin were purchased from Sigma (St. Louis., Mo., USA). Mouse interleukin-3 (IL-3) was purchased from Cell signaling Technology (Boston, Mass., USA).
# (§2) To investigate whether a compound is able to inhibit the activity of TRK fusion mutation in cells, a mechanism-based assay using engineered Ba/F3 cell lines stably overexpressing oncogenic rearrangement or gene mutation of TRK (TPM3-TRKA, TPM3-TRKA-G595R, AFAP1-TRKB, ETV6-TRKC and ETV6-TRKC-G623R) were developed. In this assay, inhibition of TRK fusion mutation was detected by the cell proliferation inhibition of engineered Ba/F3 cells. Engineered Ba/F3 cells were cultured in culture flasks to 40-80% confluence in RPMI-1640 supplemented with 10% fetal bovine serum, 2 ug/mL puromycin. Cells were collected and plated onto 96-well plates at desired cell density (Ba/F3-TPM3-TRKA: 3×10^4/mL, Ba/F3-TPM3-TRKA-G595R: 1×10^5/mL, Ba/F3-AFAP1-TRKB: 1×10^5/mL, Ba/F3-ETV6-TRKC: 3×10^4/mL, Ba/F3-ETV6-TRKC-G623R: 3×10^4/mL). Plates were incubated at 37° C., with 5% CO2 for 4 h. Compounds were then added to the plates with the final compound concentrations of 10000, 3333, 1111, […], 123, 41.2, 13.7, 4.6 and 1.5 nM. Plates were incubated at 37° C., with 5% CO2 for 72 h. A mixture of 20 μl MTS/100 μl medium were added to each well and the plates were incubated at 37° C., with 5% CO2 for exactly 2 h. The reaction was stopped by adding 25 μl of 10% SDS per well. The absorbance was measured at 490 nm and 650 nm (reference wavelength). IC50 was calculated using GraphPad Prism 5.0 software.
# TPM3-TRKA = target: T3, TPM3-TRKA (Homo sapiens, UniProt P04629); test: Engineered Ba/F3 cell proliferation inhibition (MTS), TPM3-TRKA; conditions: 72 h
# T3 construct: TPM3 (tropomyosin alpha-3, P06753) fusion partner; expressed in transfected cells; host or cells: Ba/F3; the other entry of the earlier key: TPM3 (P06753, Tropomyosin alpha-3 chain)
# Excerpt: as §1, §2
# KM12 cells = KM12 cells proliferation inhibition (MTS), mechanism-based assay for TRK; conditions: Homo sapiens, KM12, 72 h
# Excerpt: as §1
# To investigate whether a compound is able to inhibit the activity of TRK in cells, a mechanism-based assay using KM12 cells was developed. In this assay, inhibition of TRK was detected by the inhibition of KM12 cells proliferation. KM12 cells were cultured in culture flasks to 40-80% confluence in RPMI-1640 plus 10% fetal bovine serum. Cells were collected and plated onto 96-well plates at 1000 cells/well. Plates were incubated at 37° C., with 5% CO2 for 4 h. Compounds were added to the plates, the final compound concentrations were […], 123.5, 41.2, 13.7, 4.6 and 1.5 nM. Place plates at 37° C., with 5% CO2 for KM12 cells 72 h. 20 μl MTS/100 μl medium mixture solution were added to each well and incubate the plates for exactly 2 h. Stop the reaction by adding 25 μl 10% SDS per well. Measure absorbance at 490 nm and 650 nm (reference wavelength). IC50 was calculated using GraphPad Prism 5.0.
# T1 sequence (Q16288 whole entry G623R, the tested form may be a part): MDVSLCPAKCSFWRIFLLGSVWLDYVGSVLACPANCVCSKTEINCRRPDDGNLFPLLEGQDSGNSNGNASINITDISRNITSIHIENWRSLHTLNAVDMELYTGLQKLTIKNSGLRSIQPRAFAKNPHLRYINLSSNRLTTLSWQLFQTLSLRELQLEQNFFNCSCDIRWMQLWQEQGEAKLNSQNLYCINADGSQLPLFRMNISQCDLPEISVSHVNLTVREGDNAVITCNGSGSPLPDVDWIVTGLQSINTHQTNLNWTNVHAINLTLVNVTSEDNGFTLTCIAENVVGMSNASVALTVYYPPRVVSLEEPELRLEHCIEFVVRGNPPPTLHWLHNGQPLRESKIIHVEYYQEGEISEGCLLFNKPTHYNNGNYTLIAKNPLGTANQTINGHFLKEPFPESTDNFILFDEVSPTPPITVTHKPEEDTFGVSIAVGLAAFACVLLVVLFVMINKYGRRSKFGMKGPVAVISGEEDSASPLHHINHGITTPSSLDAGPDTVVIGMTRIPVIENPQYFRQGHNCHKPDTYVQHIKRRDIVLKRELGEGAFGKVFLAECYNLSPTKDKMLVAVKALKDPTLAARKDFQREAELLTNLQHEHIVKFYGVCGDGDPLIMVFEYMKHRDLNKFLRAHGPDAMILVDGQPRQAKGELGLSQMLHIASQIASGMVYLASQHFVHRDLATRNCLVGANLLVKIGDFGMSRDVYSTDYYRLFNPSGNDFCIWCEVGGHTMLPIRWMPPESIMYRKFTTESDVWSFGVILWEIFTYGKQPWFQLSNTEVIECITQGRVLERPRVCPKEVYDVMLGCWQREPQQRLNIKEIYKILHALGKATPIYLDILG
# T2 sequence (P04629 510-796 G595R limits assumed): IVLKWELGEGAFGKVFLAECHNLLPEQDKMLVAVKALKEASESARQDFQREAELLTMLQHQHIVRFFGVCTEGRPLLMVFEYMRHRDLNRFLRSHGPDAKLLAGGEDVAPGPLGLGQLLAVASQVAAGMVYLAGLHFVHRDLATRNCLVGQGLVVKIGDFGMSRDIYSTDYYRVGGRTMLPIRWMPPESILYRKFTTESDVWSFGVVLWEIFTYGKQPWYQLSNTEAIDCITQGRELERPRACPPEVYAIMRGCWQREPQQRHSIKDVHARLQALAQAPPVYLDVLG
# T3 sequence (P04629 510-796 limits assumed): as the sequence (P04629 510-796 G595R limits assumed) above, with R86G counted along it
IC50 (ETV6-TRKC-G623R),IC50 (TPM3-TRKA-G595R),IC50 (TPM3-TRKA),Compound,IC50 (KM12 cells)
1 nM,5 nM,1 nM,"CN1c2ccn3ncc(c3n2)C(=O)NC2(CC2)COc2ncc(F)cc2C12CC2 [Example 17, (3′E,4′E)-5′-fluoro-2′-methyldispiro[cyclopropane-1,3′-5-oxa-2,8-diaza-1(5,3)-pyrazolo[1,5-a]pyrimidina-4(3,2)-pyridinacyclononaphane-7′,1″-cyclopropan]-9′-one]",1 nM
1 nM,,1 nM,"C[C@@H]1CNC(=O)c2cnn3ccc(nc23)N2CC[C@H]3C[C@]32c2cc(F)ccc2O1 [Example 21, (1^3E,1^4E,2^1R,2^5S,5R)-3^5-fluoro-5-methyl-4-oxa-2^2,7-diaza-1(5,3)-pyrazolo[1,5-a]pyrimidina-2(2,1)-bicyclo[3.1.0]hexana-3(1,2)-benzenacyclooctaphan-8-one]",1 nM
5 nM,4 nM,1 nM,"O=C1NCCOc2ncc(F)cc2[C@@]23C[C@@H]2CCN3c2ccn3ncc1c3n2 [Example 23, (1^3E,1^4E,2^1R,2^5S)-35-fluoro-4-oxa-2^2,7-diaza-1(5,3)-pyrazolo[1,5-a]pyrimidina-3(3,2)-pyridina-2(2,1)-bicyclo[3.1.0]hexanacyclooctaphan-8-one]",1 nM
6 nM,,1 nM,"C[C@H]1COc2ncc(F)cc2[C@@]23C[C@@H]2CCN3c2ccn3ncc(c3n2)C(=O)N1 [Example 28, (1^3E,1^4E,2^1R,2^5S,6S)-3^5-fluoro-6-methyl-4-oxa-2^2,7-diaza-1(5,3)-pyrazolo[1,5-a]pyrimidina-3(3,2)-pyridina-2(2,1)-bicyclo[3.1.0]hexanacyclooctaphan-8-one]",1 nM
2 nM,,1 nM,"C[C@H]1CCc2ncc(F)cc2[C@@]23C[C@@H]2CCN3c2ccn3ncc(c3n2)C(=O)N1 [Example 30, (1^3E,1^4E,2^1R,2^5S,6S)-35-fluoro-6-methyl-2^2,7-diaza-1(5,3)-pyrazolo[1,5-a]pyrimidina-3(3,2)-pyridina-2(2,1)-bicyclo[3.1.0]hexana-cyclooctaphan-8-one]",1 nM
26 nM,30 nM,1 nM,"O=C1NC2(CC2)COc2ncc(F)cc2C2(CC2)Nc2ccn3ncc1c3n2 [Example 41, (3′E,4′E)-5′-fluorodispiro[cyclopropane-1,3′-5-oxa-2,8-diaza-1(5,3)-pyrazolo[1,5-a]pyrimidina-4(3,2)-pyridina-cyclononaphane-7′,1″-cyclopropan]-9′-one]",1 nM
62 nM,,13 nM,"CN1c2ccn3ncc(c3n2)C(=O)NCCOc2ccc(F)cc2C12CC2 [Example 54, (3′E,4′E)-5′-fluoro-2′-methylspiro-[cyclopropane-1,3′-5-oxa-2,8-diaza-1(5,3)-pyrazolo[1,5-a]pyrimidina-4(1,2)-benzenacyclononaphan]-9′-one]",9 nM
68 nM,,6 nM,"CCN1c2ccn3ncc(c3n2)C(=O)N[C@H](C)COc2ncc(F)cc2C12CC2 [Example 64, (R,3′E,4′E)-2′-ethyl-5′-fluoro-7′-methylspiro [cyclopropane-1,3′-5-oxa-2,8-diaza-1(5,3)-pyrazolo[1,5-a]pyrimidina-4(3,2)-pyridinacyclononaphan]-9′-one]",2 nM
,,23 nM,"O=C1NCCCOc2ncc(F)cc2C2(CC2)Nc2ccn3ncc1c3n2 [Example 67, (3′E,4′E)-5′-fluorospiro[cyclopropane-1,3′-5-oxa-2,9-diaza-1(5,3)-pyrazolo[1,5-a]pyrimidina-4(3,2)-pyridinacyclodecaphan]-10′-one]",10 nM
33 nM,53 nM,8 nM,"CN1c2ccn3ncc(c3n2)C(=O)NCCCOc2ncc(F)cc2C12CC2 [Example 68, (3′E,4′E)-5′-fluoro-2′-methylspiro-[cyclopropane-1,3′-5-oxa-2,9-diaza-1(5,3)-pyrazolo[1,5-a]pyrimidina-4(3,2)-pyridina-cyclodecaphan]-10′-one]",10 nM

# Source: patent publication US11555042B2, “Macrocyclic compounds as TRK kinases inhibitors” (FOCHON BIOSCIENCES, LTD., priority 2018, dated 2023)
